Results on 31 compounds are retold here after US8648092B2, “Imidazo[1,2-a]pyridine derivatives: preparation and pharmaceutical applications” (MEI Pharma, priority 2005, dated 2014).

In test [1] the target is HDAC1 enzyme (recombinant GST-HDAC1) (Homo sapiens (Human), UniProt Q13547). In words: In vitro HDAC assay for determination of IC50 values (BIOMOL fluorescent-based HDAC activity assay). The test is classed as biochemical. As to conditions: Flur de lys substrate, 2 h room temperature, read-out: IC50 (HDAC 1). The procedure, abridged: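 Recombinant human GST-HDAC1, baculovirus-expressed in SF9 cells and glutathione-purified, tested with a fluorogenic deacetylase substrate; Fluor de Lys developer added for 10 min. Fluorescence at 360 nm excitation/460 nm emission; IC50 fitted from a concentration series.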

Test [2] has as its system Colo205 cells. In words: Cell-based proliferation assay for determination of GI50 values (CyQUANT). Also noted: species or system human. The following applies: Homo sapiens. The procedure, abridged: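 Colo205 cells in RPMI 1640 with 5% FBS, seeded 5000/well and grown 24 h at 37 °C. Exposure to compound lasted 96 h, with growth read by CyQUANT. GI50 = concentration giving 50% growth inhibition, from dose-response curves.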

Chain of HDAC1 enzyme (recombinant GST-HDAC1) (Q13547 whole entry): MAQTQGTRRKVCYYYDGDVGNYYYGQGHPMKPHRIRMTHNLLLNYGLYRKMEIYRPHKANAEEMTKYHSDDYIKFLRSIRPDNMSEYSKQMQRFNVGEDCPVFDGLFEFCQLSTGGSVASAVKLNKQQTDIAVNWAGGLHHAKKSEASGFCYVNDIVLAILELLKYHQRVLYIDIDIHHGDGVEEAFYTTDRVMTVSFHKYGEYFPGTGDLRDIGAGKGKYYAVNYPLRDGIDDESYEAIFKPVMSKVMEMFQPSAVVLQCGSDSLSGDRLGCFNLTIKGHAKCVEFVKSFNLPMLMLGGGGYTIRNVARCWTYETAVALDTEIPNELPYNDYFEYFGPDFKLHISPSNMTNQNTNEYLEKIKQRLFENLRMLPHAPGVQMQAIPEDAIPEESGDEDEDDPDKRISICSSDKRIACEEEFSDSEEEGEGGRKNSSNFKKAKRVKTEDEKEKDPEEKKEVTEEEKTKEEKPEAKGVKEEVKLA

In general, IC50 refers to the point on the concentration scale where inhibition reaches its midpoint. As usually defined, the GI50 is the concentration at which growth is held to half of that of the control. Higher therefore signals lower sensitivity of the cells. With `CCN(CCC(C)(C)C)Cc1c(C)nc2cc(/C=C/C(=O)NO)ccn12` [Compound 125, 3-(3-{[(3,3-Dimethyl-butyl)-ethyl-amino]-methyl}-2-methyl-imidazo[1,2-a]pyridin-7-yl)-N-hydroxyacrylamide], the IC50 in test [1] was 0.05 µM. The GI50 in test [2] (COLO 205, 96 h treatment) is 0.16 µM.
Regarding `CCCCc1nc2cc(/C=C/C(=O)NO)ccn2c1CN(CC)CCCC` [Compound 77, 3-{2-Butyl-3-[(butyl-ethyl-amino)-methyl]-imidazo[1,2-a]pyridin-7-yl}-N-hydroxy-acrylamide], the half-maximal inhibitory concentration (IC50) in test [1] worked out at 0.06 µM. In test [2] (COLO 205, 96 h treatment), this compound had a GI50 of 0.16 µM.
Take `CCCCc1nc2cc(/C=C/C(=O)NO)ccn2c1CNC(C)(C)C` [Compound 73, 3-[2-Butyl-3-(tert-butylamino-methyl)-imidazo[1,2-a]pyridin-7-yl]-N-hydroxy-acrylamide]: the IC50 in test [1] is 0.02 µM. In test [2] (COLO 205, 96 h, 96 h treatment), this compound returned a GI50 of 0.14 µM.
For `CCCCCCc1nc2cc(/C=C/C(=O)NO)ccn2c1NCCC(=O)N(CCC)CCO` [Compound 33, 3-(2-Hexyl-3-{2-[(2-hydroxy-ethyl)-propyl-carbamoyl]-ethylamino}-imidazo[1,2-a]pyridin-7-yl)-N-hydroxy-acrylamide], in test [1], the IC50 worked out at 0.83 µM. In test [2] (COLO 205, 96 h treatment), this compound displayed a GI50 of 27 µM.
The matching figures for `CCCCc1nc2cc(/C=C/C(=O)NO)ccn2c1CN(CC)CCC(C)C` [Compound 114, 3-(2-Butyl-3-{[ethyl-(3-methyl-butyl)-amino]-methyl}-imidazo[1,2-a]pyridin-7-yl)-N-hydroxy-acrylamide]: 0.02 µM and 0.09 µM.
With `COCCNc1c(CC(C)CC(C)(C)C)nc2ccc(/C=C/C(=O)NO)cn12` (centres unmarked) [Compound 15, (E)-N-hydroxy-3-(3-(2-methoxyethylamino)-2-(2,4,4-trimethylpentyl)imidazo[1,2-a]pyridin-6-yl)acrylamide], the IC50 in test [1] was 0.76 µM. This compound also displayed a GI50 in test [2] (COLO 205, 96 h treatment) of 16 µM.
In the case of `CCCCN(CC)Cc1c(CC(C)C)nc2cc(/C=C/C(=O)NO)ccn12` [Compound 134, 3-{3-[(Butyl-ethyl-amino)-methyl]-2-isobutyl-imidazo[1,2-a]pyridin-7-yl}-N-hydroxy-acrylamide], the IC50 in test [1] came to 0.04 µM. In test [2] (COLO 205, 96 h, 96 h treatment), this compound had a concentration for 50% growth inhibition (GI50) of 0.15 µM.
As for `CC(C)(C)NCc1c(-c2ccccc2)nc2ccc(/C=C/C(=O)NO)cn12` [Compound 65, 3-[3-(tert-Butylamino-methyl)-2-phenyl-imidazo[1,2-a]pyridin-6-yl]-N-hydroxy-acrylamide], in test [1], the IC50 was > 10 µM. Moreover, the GI50 in test [2] (COLO 205, 96 h treatment) came to 62 µM.
Take `CCCCCCc1nc2cc(/C=C/C(=O)NO)ccn2c1NCCC(=O)N(C)C(C)C` [Compound 37, 3-{2-Hexyl-3-[2-(isopropyl-methyl-carbamoyl)-ethylamino]-imidazo[1,2-a]pyridin-7-yl}-N-hydroxy-acrylamide]: the IC50 in test [1] came out at 0.59 µM. It took 5.3 µM to inhibit growth in test [2] (COLO 205, 96 h treatment) by half (GI50).
The corresponding values for `CCCCCCc1nc2cc(/C=C/C(=O)NO)ccn2c1NCCC(=O)NCC` [Compound 29, 3-[3-(2-Ethylcarbamoyl-ethylamino)-2-hexyl-imidazo[1,2-a]pyridin-7-yl]-N-hydroxy-acrylamide] are 0.38 µM and 2.1 µM.
Take `COCCNc1c(CC(C)(C)C)nc2ccc(/C=C/C(=O)NO)cn12` [Compound 8, 3-[2-(2,2-Dimethyl-propyl)-3-(2-methoxy-ethylamino)-imidazo[1,2-a]pyridin-6-yl]-N-hydroxy-acrylamide]: the IC50 in test [1] was determined as 1 µM. The compound further gave a GI50 in test [2] (COLO 205, 96 h treatment) of 14 µM.
Consider `CCN(CC)Cc1c(C(C)(C)C)nc2cc(/C=C/C(=O)NO)ccn12` [Compound 80, 3-(2-tert-Butyl-3-diethylaminomethyl-imidazo[1,2-a]pyridin-7-yl)-N-hydroxy-acrylamide], for which the IC50 in test [1] worked out at 1.2 µM. This compound also had a GI50 in test [2] (COLO 205, 96 h, 96 h treatment) of 4.4 µM.
Turning to `CCN(CCOC)Cc1c(-c2ccccc2)nc2cc(/C=C/C(=O)NO)ccn12` [Compound 56, 3-(3-{[Ethyl-(2-methoxy-ethyl)-amino]-methyl}-2-phenyl-imidazo[1,2-a]pyridin-7-yl)-N-hydroxy-acrylamide], the IC50 in test [1] is 1.6 µM. Further, in test [2] (COLO 205, 96 h treatment), the GI50 was 9 µM.
Regarding `CCN(CC)CCNCc1c(C(C)(C)C)nc2cc(/C=C/C(=O)NO)ccn12` [Compound 43, 3-{2-tert-Butyl-3-[(2-diethylamino-ethylamino)-methyl]-imidazo[1,2-a]pyridin-7-yl}-N-hydroxy-acrylamide], the IC50 in test [1] came to 2 µM. For the same compound, in test [2] (COLO 205, 96 h treatment), the GI50 came to 34 µM.
The corresponding values for `CCCCNCc1c(C)nc2cc(/C=C/C(=O)NO)ccn12` [Compound 42, 3-(3-Butylaminomethyl-2-methyl-imidazo[1,2-a]pyridin-7-yl)-N-hydroxy-acrylamide] are 0.16 µM and 1.5 µM.
On to `CCN(CCN(C)C)Cc1c(-c2ccccc2)nc2cc(/C=C/C(=O)NO)ccn12` [Compound 44, 3-(3-{[(2-Dimethylamino-ethyl)-ethyl-amino]-methyl}-2-phenyl-imidazo[1,2-a]pyridin-7-yl)-N-hydroxy-acrylamide], for which the concentration for half-maximal inhibition (IC50) in test [1] is 2.9 µM. In test [2] (COLO 205, 96 h treatment), this compound had a GI50 of 32 µM.
Regarding `CCCCCCc1nc2cc(/C=C/C(=O)NO)ccn2c1NCCC(=O)N(C)CCN(C)C` [Compound 32, 3-(3-{2-[(2-Dimethylamino-ethyl)-methyl-carbamoyl]-ethylamino}-2-hexyl-imidazo[1,2a]pyridin-7-yl)-N-hydroxy-acrylamide], the IC50 in test [1] amounted to 0.24 µM. Also, the GI50 in test [2] (COLO 205, 96 h treatment) came to 2.8 µM.
As to `CCCCc1nc2cc(/C=C/C(=O)NO)ccn2c1CN(CC)CC` [Compound 75, 3-(2-Butyl-3-diethylaminomethyl-imidazo[1,2-a]pyridin-7-yl)-N-hydroxy-acrylamide], the IC50 in test [1] stood at 0.18 µM. Further, the GI50 in test [2] (COLO 205, 96 h treatment) amounted to 0.68 µM.
The matching figures for `O=C(/C=C/c1ccn2c(CNCC(F)(F)F)c(-c3ccccc3)nc2c1)NO` [Compound 46, N-Hydroxy-3-{2-phenyl-3-[(2,2,2-trifluoro-ethylamino)-methyl]-imidazo[1,2-a]pyridin-7-yl}-acrylamide]: > 10 µM and 11 µM.
Consider `CCCCc1nc2cc(/C=C/C(=O)NO)ccn2c1CN(C)C` [Compound 83, 3-(2-Butyl-3-dimethylaminomethyl-imidazo[1,2-a]pyridin-7-yl)-N-hydroxy-acrylamide], for which the IC50 in test [1] was 0.04 µM. Moreover, the GI50 in test [2] (COLO 205, 96 h, 96 h treatment) stood at 0.23 µM.
With `C#CCNC(=O)CCNc1c(CCCCCC)nc2cc(/C=C/C(=O)NO)ccn12` [Compound 26, 3-[2-Hexyl-3-(2-prop-2-ynylcarbamoyl-ethylamino)-imidazo[1,2-a]pyridin-7-yl]-N-hydroxy-acrylamide], the IC50 in test [1] stood at 0.14 µM. Also, the GI50 in test [2] (COLO 205, 96 h treatment) came to 7.9 µM.
The corresponding values for `CN(CCC(C)(C)C)Cc1c(C(C)(C)C)nc2cc(/C=C/C(=O)NO)ccn12` [Compound 109, 3-(2-tert-Butyl-3-{[(3,3-dimethyl-butyl)-methyl-amino]-methyl}-imidazo[1,2-a]pyridin-7-yl)-N-hydroxy-acrylamide] are 0.27 µM and 0.73 µM.
Turning to `CC(C)CCc1nc2cc(/C=C/C(=O)NO)ccn2c1CNC(C)(C)C` [Compound 140, 3-[3-(tert-Butylamino-methyl)-2-(3-methyl-butyl)-imidazo[1,2-a]pyridin-7-yl]-N-hydroxy-acrylamide], in test [1], the IC50 was determined as 0.02 µM. In test [2] (COLO 205, 96 h treatment), it took 0.1 µM to inhibit growth by half (GI50).
The corresponding values for `CCCN(CC)Cc1c(C(C)(C)C)nc2cc(/C=C/C(=O)NO)ccn12` [Compound 82, 3-{2-tert-Butyl-3-[(ethyl-propyl-amino)-methyl]-imidazo[1,2-a]pyridin-7-yl}-N hydroxy-acrylamide] are 0.27 µM and 1.8 µM.
On to `CCN1CCN(Cc2c(-c3ccccc3)nc3cc(/C=C/C(=O)NO)ccn23)CC1` [Compound 57, 3-[3-(4-Ethyl-piperazin-1-ylmethyl)-2-phenyl-imidazo[1,2-a]pyridin-7-yl]-N-hydroxy-acrylamide], for which the IC50 in test [1] turned out to be 4.6 µM. In addition, the GI50 in test [2] (COLO 205, 96 h treatment) was 14 µM.
With `O=C(C=Cc1ccn2c(CN3CCC(Cc4ccccc4)CC3)c(-c3ccccc3)nc2c1)NO` [Compound 58, 3-[3-(4-Benzyl-piperidin-1-ylmethyl)-2-phenyl-imidazo[1,2-a]pyridin-7-yl]-N-hydroxy-acrylamide], the IC50 in test [1] was 1.5 µM. Besides, it took 2.9 µM to inhibit growth in test [2] (COLO 205, 96 h treatment) by half (GI50).
For `CCCCc1nc2cc(/C=C/C(=O)NO)ccn2c1CN(CCC)CCC` [Compound 74, 3-(2-Butyl-3-dipropylaminomethyl-imidazo[1,2-a]pyridin-7-yl)-N-hydroxy-acrylamide], in test [1], the IC50 came to 0.2 µM. In test [2] (COLO 205, 96 h treatment), this compound yielded a GI50 of 0.61 µM.
`CCCCCc1nc2ccc(/C=C/C(=O)NO)cn2c1NCCOC` [Compound 9, N-Hydroxy-3-[3-(2-methoxy-ethylamino)-2-pentyl-imidazo[1,2-a]pyridin-6-yl]-acrylamide]: the IC50 in test [1] came to 1.3 µM. The same compound returned a GI50 in test [2] (COLO 205, 96 h treatment) of 5.3 µM.
`CCN(CCC(C)(C)C)Cc1c(C(C)(C)C)nc2cc(/C=C/C(=O)NO)ccn12` [Compound 92, 3-(2-tert-Butyl-3-{[(3,3-dimethyl-butyl)-ethyl-amino]-methyl}-imidazo[1,2a]pyridin-7-yl)-N-hydroxy-acrylamide]: the IC50 in test [1] worked out at 0.07 µM. The GI50 in test [2] (COLO 205, 96 h, 96 h treatment) worked out at 0.48 µM.
`CCCCCCc1nc2cc(/C=C/C(=O)NO)ccn2c1NCCC(=O)NC` [Compound 36, 3-[2-Hexyl-3-(2-methylcarbamoyl-ethylamino)-imidazo[1,2-a]pyridin-7-yl]-N-hydroxy-acrylamide]: the IC50 in test [1] was 0.39 µM. This compound yielded a GI50 in test [2] (COLO 205, 96 h treatment) of 14 µM.
Turning to `COCCNc1c(CC(C)CC(C)(C)C)nc2c(/C=C/C(=O)NO)cccn12` (centres unmarked) [Compound 16, (E)-N-hydroxy-3-(3-(2-methoxyethylamino)-2-(2,4,4-trimethylpentyl)imidazo[1,2-a]pyridin-8-yl)acrylamide], the IC50 in test [1] was > 10 µM. Further, in test [2] (COLO 205, 96 h treatment), the GI50 worked out at 20 µM.
